Test results reported in patent US9399626B2, “2-thiopyrimidinones” (Pfizer Inc., priority 2011, dated 2016).
Counter-ions that a name gives are not always drawn.

Each compound was assayed against T1, MPO (purified from human polynuclear leukocytes) (Homo sapiens, UniProt P05164) (assay: MPO Amplex Red Activity Assay). Details: Table 1, 2 μM H2O2, pH 7.4.
T1 construct: purified from human polynuclear leukocytes; purchased Calbiochem/EMD Biosciences; host or cells: human polynuclear leukocytes (natural source)
Format: biochemical
Outline: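 Potency is given as kinact/KI: kobs values from 600 s progress curves, minus the uninhibited rate, are fit against inhibitor concentration. Reactions use 2 μM H2O2, 30 μM Amplex Red, pH 7.4 phosphate buffer with NaCl, DTPA and 2% DMSO, started with […] human MPO. Readout is resorufin fluorescence, catalase background subtracted.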

T1 sequence (P05164 279-745 limits assumed): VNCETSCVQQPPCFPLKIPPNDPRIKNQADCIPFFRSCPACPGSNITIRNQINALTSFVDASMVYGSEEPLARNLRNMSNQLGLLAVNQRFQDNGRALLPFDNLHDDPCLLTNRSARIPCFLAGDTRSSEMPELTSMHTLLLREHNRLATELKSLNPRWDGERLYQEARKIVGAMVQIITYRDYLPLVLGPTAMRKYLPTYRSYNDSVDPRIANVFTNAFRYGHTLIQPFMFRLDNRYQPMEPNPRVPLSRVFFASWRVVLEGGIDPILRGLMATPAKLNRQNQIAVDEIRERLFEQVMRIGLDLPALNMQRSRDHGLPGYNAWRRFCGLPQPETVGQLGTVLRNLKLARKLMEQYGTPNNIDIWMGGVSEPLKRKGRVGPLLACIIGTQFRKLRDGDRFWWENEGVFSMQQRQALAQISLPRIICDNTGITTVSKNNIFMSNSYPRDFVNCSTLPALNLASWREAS
T1 sequence (P05164 165-273 limits assumed): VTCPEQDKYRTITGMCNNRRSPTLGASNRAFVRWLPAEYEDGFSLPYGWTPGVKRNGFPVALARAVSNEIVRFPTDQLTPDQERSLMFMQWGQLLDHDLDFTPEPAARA

SMILES	MPO kinact/Ki
COc1ccc(Cl)cc1-c1cc(=O)[nH]c(=S)n1CC1CCNCC1 [Example 132, 6-(5-chloro-2-methoxyphenyl)-1-(piperidin-4-ylmethyl)-2-thioxo-2,3-dihydropyrimidin-4(1H)-one hydrochloride]	3840 1/s per M
COc1ccc(Cl)cc1-c1cc(=O)[nH]c(=S)n1CCCN=C(N)N [Example 133, 2-{3-[6-(5-chloro-2-methoxyphenyl)-4-oxo-2-thioxo-3,4-dihydropyrimidin-1(2H)-yl]propyl} guanidine]	15300 1/s per M
COc1ccc(Cl)cc1-c1cc(=O)[nH]c(=S)n1CCCNC(C)=O [Example 134, N-{3-[6-(5-chloro-2-methoxyphenyl)-4-oxo-2-thioxo-3,4-dihydropyrimidin-1(2H)-yl]propyl} acetamide]	5350 1/s per M
COc1ccc(Cl)cc1-c1cc(=O)[nH]c(=S)n1CCNC(=O)CN [Example 135, N-{2-[6-(5-chloro-2-methoxyphenyl)-4-oxo-2-thioxo-3,4-dihydropyrimidin-1(2H)-yl]ethyl} glycinamide hydrochloride]	6750 1/s per M
COc1ccc(-c2cc(=O)[nH]c(=S)n2CCNC(=N)NC#N)c(OC)c1 [Example 136, 1-cyano-3-{2-[6-(2,4-dimethoxyphenyl)-4-oxo-2-thioxo-3,4-dihydropyrimidin-1(2H)-yl]ethyl}guanidine]	1920 1/s per M
COc1ccc(-c2cc(=O)[nH]c(=S)n2CC(=O)OC(C)(C)C)c(OC)c1 [Example 137, tert-butyl[6-(2,4-dimethoxyphenyl)-4-oxo-2-thioxo-3,4-dihydropyrimidin-1(2H)-yl]acetate]	701 1/s per M
COc1cc(OC)c(-c2cc(=O)[nH]c(=S)n2CCN=C(N)N)cc1OC [Example 138, 2-{2-[4-oxo-2-thioxo-6-(2,4,5-trimethoxyphenyl)-3,4-dihydropyrimidin-1(2H)-yl]ethyl}guanidine hydrochloride]	4530 1/s per M
CCOC(=O)Cn1c(-c2cc(OC)c(OC)cc2OC)cc(=O)[nH]c1=S [Example 139, ethyl[4-oxo-2-thioxo-6-(2,4,5-trimethoxyphenyl)-3,4-dihydropyrimidin-1(2H)-yl]acetate]	2890 1/s per M
COc1ccc(-c2cc(=O)[nH]c(=S)n2CCOCCNC(=N)N)c(OC)c1 [Example 140, 1-(2-{2-[6-(2,4-dimethoxyphenyl)-4-oxo-2-thioxo-3,4-dihydropyrimidin-1(2H)-yl]ethoxy}ethyl) guanidine formate]	10400 1/s per M
COc1cc(OC)c(-c2cc(=O)[nH]c(=S)n2CCCN=C(N)N)cc1OC [Example 141, 2-{3-[4-oxo-2-thioxo-6-(2,4,5-trimethoxyphenyl)-3,4-dihydropyrimidin-1(2H)-yl]propyl} guanidine trifluoroacetate]	10500 1/s per M
NCCn1c(-c2cccc3[nH]ccc23)cc(=O)[nH]c1=S [Example 142, 1-(2-aminoethyl)-6-(1H-indol-4-yl)-2-thioxo-2,3-dihydropyrimidin-4(1H)-one trifluoroacetate]	4210 1/s per M
NCCn1c(-c2cccc3ccoc23)cc(=O)[nH]c1=S [Example 143, 1-(2-aminoethyl)-6-(1-benzofuran-7-yl)-2-thioxo-2,3-dihydropyrimidin-4(1H)-one hydrochloride]	8110 1/s per M
NCCn1c(-c2ccccc2-n2nccn2)cc(=O)[nH]c1=S [Example 144, 1-(2-aminoethyl)-2-thioxo-6-[2-(2H-1,2,3-triazol-2-yl)phenyl]-2,3-dihydropyrimidin-4(1H)-one hydrochloride]	6010 1/s per M
COc1ncc(Cl)cc1-c1cc(=O)[nH]c(=S)n1CC(N)=O [Example 145, 2-[6-(5-chloro-2-methoxypyridin-3-yl)-4-oxo-2-thioxo-3,4-dihydropyrimidin-1(2H)-yl]acetamide]	5080 1/s per M
COc1cc(OC)c(-c2cc(=O)[nH]c(=S)n2CC(N)=O)cc1C [Example 146, 2-[6-(2,4-dimethoxy-5-methylphenyl)-4-oxo-2-thioxo-3,4-dihydropyrimidin-1(2H)-yl]acetamide]	8950 1/s per M
COc1cc(-c2cc(=O)[nH]c(=S)n2CC(N)=O)c(OC)cc1C [Example 147, 2-[6-(2,5-dimethoxy-4-methylphenyl)-4-oxo-2-thioxo-3,4-dihydropyrimidin-1(2H)-yl]acetamide]	6500 1/s per M
COc1ccc(Cl)cc1-c1cc(=O)[nH]c(=S)n1CCCNC(N)=O [Example 148, 1-{3-[6-(5-chloro-2-methoxyphenyl)-4-oxo-2-thioxo-3,4-dihydropyrimidin-1(2H)-yl]propyl}urea]	6690 1/s per M
COc1ccc(Cl)cc1-c1cc(=O)[nH]c(=S)n1CCCNC(=O)CN [Example 149, N-{3-[6-(5-chloro-2-methoxyphenyl)-4-oxo-2-thioxo-3,4-dihydropyrimidin-1(2H)-yl]propyl} glycinamide hydrochloride]	9770 1/s per M
COc1ncc(C)cc1-c1cc(=O)[nH]c(=S)n1CCO [Example 150, 1-(2-hydroxyethyl)-6-(2-methoxy-5-methylpyridin-3-yl)-2-thioxo-2,3-dihydropyrimidin-4(1H)-one]	8970 1/s per M

SMILES	MPO kinact/Ki
COc1ccc(-c2cc(=O)[nH]c(=S)n2C[C@@H]2CCCNC2)c(OC)c1 [Example 151, 6-(2,4-dimethoxyphenyl)-1-[(3R)-piperidin-3-ylmethyl]-2-thioxo-2,3-dihydropyrimidin-4(1H)-one hydrochloride]	3740 1/s per M
COc1ccc(-c2cc(=O)[nH]c(=S)n2CCC2CCNCC2)c(OC)c1 [Example 152, 6-(2,4-dimethoxyphenyl)-1-(2-piperidin-4-ylethyl)-2-thioxo-2,3-dihydropyrimidin-4(1H)-one hydrochloride]	4770 1/s per M
COc1ccc(-c2cc(=O)[nH]c(=S)n2CCC2CCN(C(C)=O)CC2)c(OC)c1 [Example 153, 1-[2-(1-acetylpiperidin-4-yl)ethyl]-6-(2,4-dimethoxyphenyl)-2-thioxo-2,3-dihydropyrimidin-4(1H)-one]	2200 1/s per M
COCCn1c(-c2ncc[nH]2)cc(=O)[nH]c1=S [Example 154, 6-(1H-imidazol-2-yl)-1-(2-methoxyethyl)-2-thioxo-2,3-dihydropyrimidin-4(1H)-one]	1070 1/s per M
COc1cccc(-c2cc(=O)[nH]c(=S)n2CCO)c1 [Example 155, 1-(2-hydroxyethyl)-6-(3-methoxyphenyl)-2-thioxo-2,3-dihydropyrimidin-4(1H)-one]	8090 1/s per M
COc1ccccc1-c1cc(=O)[nH]c(=S)n1CCO [Example 156, 1-(2-hydroxyethyl)-6-(2-methoxyphenyl)-2-thioxo-2,3-dihydropyrimidin-4(1H)-one]	16800 1/s per M
COc1cccc(OC)c1-c1cc(=O)[nH]c(=S)n1C [Example 157, 6-(2,6-dimethoxyphenyl)-1-methyl-2-thioxo-2,3-dihydropyrimidin-4(1H)-one]	7320 1/s per M
COCCn1c(-c2ccccc2F)cc(=O)[nH]c1=S [Example 158, 6-(2-fluorophenyl)-1-(2-methoxyethyl)-2-thioxo-2,3-dihydropyrimidin-4(1H)-one]	1750 1/s per M
COc1ccc(C)cc1-c1cc(=O)[nH]c(=S)n1CCN [Example 159, 1-(2-aminoethyl)-6-(2-methoxy-5-methylphenyl)-2-thioxo-2,3-dihydropyrimidin-4(1H)-one hydrochloride]	11400 1/s per M
COCCn1c(-c2ccccc2OC)cc(=O)[nH]c1=S [Example 160, 1-(2-methoxyethyl)-6-(2-methoxyphenyl)-2-thioxo-2,3-dihydropyrimidin-4(1H)-one]	7540 1/s per M
COc1ccc(C)cc1-c1cc(=O)[nH]c(=S)n1CCO [Example 161, 1-(2-hydroxyethyl)-6-(2-methoxy-5-methylphenyl)-2-thioxo-2,3-dihydropyrimidin-4(1H)-one]	29600 1/s per M
O=c1cc(-c2cccc3ccccc23)n(CCO)c(=S)[nH]1 [Example 162, 1-(2-hydroxyethyl)-6-(1-naphthyl)-2-thioxo-2,3-dihydropyrimidin-4(1H)-one]	8950 1/s per M
COc1ccc(C#N)cc1-c1cc(=O)[nH]c(=S)n1CCO [Example 163, 3-[3-(2-hydroxyethyl)-6-oxo-2-thioxo-1,2,3,6-tetrahydropyrimidin-4-yl]-4-methoxybenzonitrile]	8090 1/s per M
COc1ccc(C)cc1-c1cc(=O)[nH]c(=S)n1CC(N)=O [Example 164, 2-[6-(2-methoxy-5-methylphenyl)-4-oxo-2-thioxo-3,4-dihydropyrimidin-1(2H)-yl]acetamide]	14900 1/s per M
COCCn1c(-c2ccc(N(C)C)nc2)cc(=O)[nH]c1=S [Example 165, 6-[6-(dimethylamino)pyridin-3-yl]-1-(2-methoxyethyl)-2-thioxo-2,3-dihydropyrimidin-4(1H)-one]	1280 1/s per M
COc1ccc(OC)c(-c2cc(=O)[nH]c(=S)n2CCN)c1 [Example 166, 1-(2-aminoethyl)-6-(2,5-dimethoxyphenyl)-2-thioxo-2,3-dihydropyrimidin-4(1H)-one hydrochloride]	8920 1/s per M
COc1cccc(OC)c1-c1cc(=O)[nH]c(=S)n1CCO [Example 167, 6-(2,6-dimethoxyphenyl)-1-(2-hydroxyethyl)-2-thioxo-2,3-dihydropyrimidin-4(1H)-one]	20300 1/s per M
O=c1cc(-c2ccccc2OCCO)n(CCO)c(=S)[nH]1 [Example 168, 6-[2-(2-hydroxyethoxy)phenyl]-1-(2-hydroxyethyl)-2-thioxo-2,3-dihydropyrimidin-4(1H)-one]	8890 1/s per M
